# In patent US4075192A, “Nonapeptides and methods for their production” (Parke, Davis & Company, priority 1977, dated 1978):
# Non-standard residues stand in square brackets, D forms with d. Residues, ends and D or L forms follow the SMILES beside them. No end group written: not given here. *: point of attachment. pGlu = O=C1CC[C@@H](C(=O)O)N1; Orn = NCCC[C@H](N)C(=O)O; Bn = c1ccc(C*)cc1
# Test system: LRF (luteinizing hormone releasing factor) induced luteinizing hormone (LH) release
# Assay: In vitro LRF antagonist test in rat anterior pituitary cell cultures
# Assay type: cell-based
# Source text: Nonapeptides of this invention were screened for LRF antagonist activity in vitro using rat anterior pituitary cell cultures as described by Vale et al. [Endocrinology, 91, 562 (1972)]. The inhibition of LRF (luteinizing hormone releasing factor) induced luteinizing hormone (LH) release into the culture medium is the endpoint in this in vitro bioassay.
Compound,"LH Value (compound Molar Conc. 1×10^-6, LH released into culture medium)","% LH Release Inhibition (compound Molar Conc. 1×10^-6, inhibition of LRF induced LH release)","LH Value (LRF alone, Molar Conc. 2.5×10^-10)"
CCNC(=O)[C@@H]1CCCN1C(=O)[C@H](CCCN)NC(=O)[C@H](CC(C)C)NC(=O)[C@@H](C)NC(=O)[C@H](COCc1ccccc1)NC(=O)[C@H](Cc1ccc(OCc2ccccc2)cc1)NC(=O)[C@H](Cc1c[nH]c2ccccc12)NC(=O)[C@@H](Cc1ccccc1)NC(=O)[C@@H]1CCC(=O)N1 [L-pyroglutamyl-D-phenylalanyl-L-tryptophyl-O-benzyl-L-tyrosyl-O-benzyl- L-seryl-D-alanyl-L-leucyl-L-ornithyl-L-proline N-ethylamide] ([pGlu][dF]WY(Bn)S(Bn)[dA]L[Orn]P-NHEt),19.15 ng/mL,61%,–
"LRF Control: luteinizing hormone releasing factor, also referred to as luteinizing hormone releasing hormone, LH-RH; stimulates secretion of luteinizing hormone (QHWSYGLRPG; ends and bridges not checked; UniProt P01148 24-33, looked up) [reference compound]",–,–,39.98 ng/mL
